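Grown in 96-well plates, cells were treated for 48 hours with each compound at five concentrations. Insufficient inhibition: endpoint recorded as highest concentration tested. TGI: total growth inhibition.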
Assays:
Assay in all cases: NCI tumour cell line growth inhibition, 48 h
[1] = tested on: HL-60(TB) leukemia
[2] = tested on: PC-3 prostate
[3] = tested on: RXF 393 renal
[4] = tested on: M14 melanoma
[5] = tested on: SF-295 CNS
[6] = tested on: MDA-N
[7] = tested on: UACC-257 melanoma
[8] = tested on: BT-549 breast
[9] = tested on: NCI-H226 lung
[10] = tested on: MDA-MB-231 breast
[11] = tested on: MOLT-4 leukemia
[12] = tested on: MCF7 breast
[13] = tested on: K-562 leukemia
[14] = tested on: A498 renal
[15] = tested on: HOP-92 NSCLC
[16] = tested on: COLO 205 colon
[17] = tested on: LOX IMVI melanoma
[18] = tested on: NCI/ADR-RES ovarian
[19] = tested on: A549 NSCLC
[20] = tested on: MALME-3M melanoma
[21] = tested on: TK-10 renal
[22] = tested on: HT29 colon
[23] = tested on: SNB-19 CNS
[24] = tested on: SN12C renal
[25] = tested on: SW-620 colon
[26] = tested on: CAKI-1 renal
[27] = tested on: EKVX NSCLC
[28] = tested on: CCRF-CEM leukemia
[29] = tested on: KM12 colon
[30] = tested on: HCT-116 colon
[31] = tested on: NCI-H23 lung
[32] = tested on: NCI-H460 lung
[33] = tested on: HCT-15 colon
[34] = tested on: SK-MEL-2 melanoma
[35] = tested on: HS 578T breast
[36] = tested on: HOP-62 NSCLC
[37] = tested on: OVCAR-8 ovarian
[38] = tested on: DU-145 prostate
[39] = tested on: ACHN renal
[40] = tested on: OVCAR-3 ovarian
[41] = tested on: UO-31 renal
[42] = tested on: OVCAR-4 ovarian
[43] = tested on: MDA-MB-435
[44] = tested on: OVCAR-5 ovarian
[45] = tested on: 786-0 renal
[46] = tested on: IGROV1 ovarian
[47] = tested on: RPMI-8226 leukemia
[48] = tested on: UACC-62 melanoma
[49] = tested on: SF-268 CNS
[50] = tested on: SK-MEL-5 melanoma
[51] = tested on: NCI-H522 lung
[52] = tested on: U251 CNS
[53] = tested on: SK-MEL-28 melanoma
[54] = tested on: HCC-2998 colon
[55] = tested on: SR leukemia
[56] = tested on: SNB-75 CNS
[57] = tested on: SF-539 CNS
[58] = tested on: T-47D breast

SMILES: O=c1[nH]c(=S)[nH]c2c1C(c1ccc(Cl)cc1)c1c([nH]c(=S)[nH]c1=O)O2
- TGI [1]: > 100 µM
- TGI [2]: > 100 µM
- TGI [3]: > 100 µM
- TGI [4]: > 100 µM
- TGI [5]: > 100 µM
- TGI [6]: > 100 µM
- TGI [7]: > 100 µM
- TGI [8]: > 100 µM
- TGI [9]: > 100 µM
- TGI [10]: > 100 µM
- TGI [11]: > 100 µM
- TGI [12]: > 100 µM
- TGI [13]: > 100 µM
- TGI [14]: > 100 µM
- TGI [15]: > 100 µM
- TGI [16]: > 100 µM
- TGI [17]: > 100 µM
- TGI [18]: > 100 µM
- TGI [19]: > 100 µM
- TGI [20]: > 100 µM
- TGI [21]: > 100 µM
- TGI [22]: > 100 µM
- TGI [23]: > 100 µM
- TGI [24]: > 100 µM
- TGI [25]: > 100 µM
- TGI [26]: > 100 µM
- TGI [27]: > 100 µM
- TGI [28]: > 100 µM
- TGI [29]: > 100 µM
- TGI [30]: > 100 µM
- TGI [31]: > 100 µM
- TGI [32]: > 100 µM
- TGI [33]: > 100 µM
- TGI [34]: > 100 µM
- TGI [35]: > 100 µM
- TGI [36]: > 100 µM
- TGI [37]: > 100 µM
- TGI [38]: > 100 µM
- TGI [39]: > 100 µM
- TGI [40]: > 100 µM
- TGI [41]: > 100 µM
- TGI [42]: > 100 µM
- TGI [43]: > 100 µM
- TGI [44]: > 100 µM
- TGI [45]: > 100 µM
- TGI [46]: > 100 µM
- TGI [47]: > 100 µM
- TGI [48]: > 100 µM
- TGI [49]: > 100 µM
- TGI [50]: > 100 µM
- TGI [51]: > 100 µM
- TGI [52]: > 100 µM
- TGI [53]: > 100 µM

SMILES: CCCCNc1nc(N)nc(Nc2ccc(Br)cc2)c1N=O
- TGI [1]: > 100 µM
- TGI [2]: > 100 µM
- TGI [3]: > 100 µM
- TGI [4]: > 100 µM
- TGI [6]: > 100 µM
- TGI [7]: > 100 µM
- TGI [54]: > 100 µM
- TGI [8]: > 100 µM
- TGI [9]: > 100 µM
- TGI [10]: > 100 µM
- TGI [11]: > 100 µM
- TGI [12]: > 100 µM
- TGI [55]: > 100 µM
- TGI [13]: > 100 µM
- TGI [16]: > 100 µM
- TGI [17]: > 100 µM
- TGI [18]: > 100 µM
- TGI [19]: > 100 µM
- TGI [20]: > 100 µM
- TGI [21]: > 100 µM
- TGI [22]: > 100 µM
- TGI [23]: > 100 µM
- TGI [24]: > 100 µM
- TGI [56]: > 100 µM
- TGI [25]: > 100 µM
- TGI [27]: > 100 µM
- TGI [28]: > 100 µM
- TGI [29]: > 100 µM
- TGI [30]: > 100 µM
- TGI [31]: > 100 µM
- TGI [32]: > 100 µM
- TGI [33]: > 100 µM
- TGI [34]: > 100 µM
- TGI [35]: 82.8 µM
- TGI [36]: > 100 µM
- TGI [37]: > 100 µM
- TGI [38]: > 100 µM
- TGI [39]: > 100 µM
- TGI [40]: > 100 µM
- TGI [41]: > 100 µM
- TGI [43]: > 100 µM
- TGI [44]: > 100 µM
- TGI [45]: > 100 µM
- TGI [46]: > 100 µM
- TGI [47]: > 100 µM
- TGI [48]: > 100 µM
- TGI [49]: > 100 µM
- TGI [50]: > 100 µM
- TGI [57]: > 100 µM
- TGI [51]: > 100 µM
- TGI [52]: > 100 µM
- TGI [53]: > 100 µM

SMILES: Cc1nn2c(C(=O)N/N=C/c3ccccc3O)c(C)nc2s1
- TGI [1]: > 100 µM
- TGI [3]: > 100 µM
- TGI [4]: > 100 µM
- TGI [5]: > 100 µM
- TGI [6]: > 100 µM
- TGI [58]: > 100 µM
- TGI [7]: > 100 µM
- TGI [54]: > 100 µM
- TGI [8]: > 100 µM
- TGI [9]: > 100 µM
- TGI [10]: > 100 µM
- TGI [11]: > 100 µM
- TGI [12]: > 100 µM
- TGI [13]: > 100 µM
- TGI [14]: > 100 µM
- TGI [15]: > 100 µM
- TGI [16]: > 100 µM
- TGI [17]: > 100 µM
- TGI [18]: > 100 µM
- TGI [19]: > 100 µM
- TGI [20]: > 100 µM
- TGI [21]: > 100 µM
- TGI [22]: > 100 µM
- TGI [23]: > 100 µM
- TGI [24]: > 100 µM
- TGI [56]: > 100 µM
- TGI [25]: > 100 µM
- TGI [26]: > 100 µM
- TGI [27]: > 100 µM
- TGI [28]: > 100 µM
- TGI [29]: > 100 µM
- TGI [30]: > 100 µM
- TGI [31]: > 100 µM
- TGI [32]: > 100 µM
- TGI [33]: > 100 µM
- TGI [35]: > 100 µM
- TGI [36]: > 100 µM
- TGI [37]: > 100 µM
- TGI [38]: > 100 µM
- TGI [39]: > 100 µM
- TGI [40]: 90.6 µM
- TGI [41]: > 100 µM
- TGI [42]: > 100 µM
- TGI [43]: > 100 µM
- TGI [44]: > 100 µM
- TGI [45]: > 100 µM
- TGI [46]: > 100 µM
- TGI [48]: > 100 µM
- TGI [49]: > 100 µM
- TGI [50]: > 100 µM
- TGI [57]: > 100 µM
- TGI [51]: > 100 µM
- TGI [52]: > 100 µM
- TGI [53]: > 100 µM

Reference: PubChem BioAssay (NCI)
